What was measured:
SK-BR-3 cells = assay: MTT proliferation assay; format: cell-based, human; conditions: 20 nM, 4 days, positive control
Description: MTT assay is a non-radioactive assay based on the cleavage of the soluble yellow tetrazolium salt MTT (3-[4,5-Dimethylthiazol-2-yl]-2,5-diphenyltetrazolium bromide; Thiazolyl Blue) by mitochondrial dehydrogenases of viable cells. […] The absorption signal is a direct measure of viable cells in the culture.
Briefly, SK-BR-3 cells were grown for 2 days in 96-well flat bottom plates. […] Supernatant was completely removed and MTT was added. Cells were incubated for 2 hours with MTT at 37° C. in a humidified CO2 incubator. The supernatant was removed and cells were lysed using HCl and 2-propanol containing lysis buffer for 1 h at room temperature in the dark. Absorption at 570 nm/630 nm was measured in a plate reader Infinite F200 (Tecan Austria GmbH).

[1] = test system: incurable, locally advanced, recurrent or metastatic solid tumors; conditions: i.v. every 3 weeks, cited from earlier work
[2] = Prevention of infusion related reactions by pre-medication; format: in vivo, human; conditions: pretreatment with paracetamol 1000 mg evening before and 1 h before, optionally methylprednisolone 125 mg 30 min before
Description: Without the use of steroids, IRRs occurred in all but one patient, at least once (grade 1 to 3). Therefore, it is recommended to use a pre-medication comprising and preferably consisting of steroids and paracetamol and to restrict the respective pre-medication to the first infusion and the single next infusion following an IRR. Preferably, paracetamol is given on the evening before and one hour before the infusion with the reduced […] anti-HER2 antibody. Steroids (for example 125 mg methylprednisolone) preferably will be administered 30 minutes before the infusion to the patient.

CC(=O)O[C@H]1C(=O)[C@@]2(C)[C@H]([C@H](OC(=O)c3ccccc3)[C@]3(O)C[C@H](OC(=O)[C@H](O)[C@@H](NC(=O)c4ccccc4)c4ccccc4)C(C)=C1C3(C)C)[C@]1(OC(C)=O)CO[C@@H]1C[C@@H]2O [Taxol, paclitaxel]
proliferation compared to the medium control (SK-BR-3 cells): 6%

pertuzumab: anti-HER2 antibody, HER dimerisation inhibitor
confirmed partial responses [1]: 2 Patients
tumor regression ([1]; patients evaluable for response): 3 of 20

CC(=O)Nc1ccc(O)cc1 [paracetamol, N-(4-hydroxyphenyl)acetamide]
patients who did not show any IRR upon Fuc− trastuzumab infusion [2]: ~50%

— patent US20150166664A1, “NOVEL THERAPEUTIC TREATMENTS WITH ANTI-HER2 ANTIBODIES HAVING A LOW FUCOSYLATION” (Glycotope GmbH, priority 2012, published 2015)
